{"source": "paper PMC8910920", "about": "(International Journal of Molecular Sciences, 2022)", "key": {"rTRPM8 [1]": {"target": "T1, rTRPM8 (Rattus norvegicus, UniProt Q8R455)", "T1 construct": "expressed in transfected cells", "T1 sequence (Q8R455 whole entry)": "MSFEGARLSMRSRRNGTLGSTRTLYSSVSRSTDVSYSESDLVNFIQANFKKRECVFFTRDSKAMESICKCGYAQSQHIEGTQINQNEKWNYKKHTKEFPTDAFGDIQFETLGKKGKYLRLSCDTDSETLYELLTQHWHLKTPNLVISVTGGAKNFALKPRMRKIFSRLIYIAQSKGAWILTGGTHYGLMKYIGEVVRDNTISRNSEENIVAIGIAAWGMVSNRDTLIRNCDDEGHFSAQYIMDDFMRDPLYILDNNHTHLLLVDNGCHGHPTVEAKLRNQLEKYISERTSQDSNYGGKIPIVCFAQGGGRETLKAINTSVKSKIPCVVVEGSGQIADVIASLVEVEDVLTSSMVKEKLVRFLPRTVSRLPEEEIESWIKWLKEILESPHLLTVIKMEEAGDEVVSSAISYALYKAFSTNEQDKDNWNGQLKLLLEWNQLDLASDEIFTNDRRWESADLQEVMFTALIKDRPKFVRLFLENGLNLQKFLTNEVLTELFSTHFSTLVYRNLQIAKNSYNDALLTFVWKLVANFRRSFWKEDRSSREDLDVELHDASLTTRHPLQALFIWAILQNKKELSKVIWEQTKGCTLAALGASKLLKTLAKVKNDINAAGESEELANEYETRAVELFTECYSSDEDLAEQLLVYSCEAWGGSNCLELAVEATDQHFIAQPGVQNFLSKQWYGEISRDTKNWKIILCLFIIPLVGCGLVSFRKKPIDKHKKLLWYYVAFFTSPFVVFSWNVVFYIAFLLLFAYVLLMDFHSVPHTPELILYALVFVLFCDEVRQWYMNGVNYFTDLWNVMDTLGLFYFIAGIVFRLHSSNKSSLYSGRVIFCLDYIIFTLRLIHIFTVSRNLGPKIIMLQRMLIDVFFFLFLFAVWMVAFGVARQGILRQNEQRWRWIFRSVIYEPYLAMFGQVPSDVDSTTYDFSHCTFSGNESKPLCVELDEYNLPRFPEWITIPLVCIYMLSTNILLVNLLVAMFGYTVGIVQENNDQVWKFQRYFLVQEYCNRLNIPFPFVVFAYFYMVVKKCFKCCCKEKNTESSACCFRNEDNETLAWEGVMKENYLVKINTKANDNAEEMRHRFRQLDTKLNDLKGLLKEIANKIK", "test": "Ca2+ microfluorography assay, HEK293 cells expressing rTRPM8, menthol activation", "type": "cell-based", "settings": "HEK293-rTRPM8, 100 μM menthol", "procedure": "This represents a similar activity as β–lactam 2 and a somewhat higher potency than the model TRPM8 antagonists AMTB.\nTo measure the effect of the compounds against TRPM8 activity we used microfluorometry-based calcium flux assays with Fluo-4 NW Ca^2+ dye and fluorescence as described in [30]. Briefly, human embryonic kidney cell line (HEK293) cells stably transfected with rTRPM8 or hTRPM8 were seeded in 96-well plates at a cell density of 30,000 cells. After 2 days the medium was replaced with 100 μL of the dye, Fluo-4 NW, loading solution supplemented with probenecid 2.5 mM and incubated 1 h at 37 °C. The TRPM8 activity was measured using POLASTAR plate reader (BMG Labtech) setting the excitation wavelength at 485 nm and the emission wavelength at 520 nm. The baseline fluorescence was recorded for 3 cycles before the addition of vehicle compound at different concentrations and the antagonist, 10 μM AMTB. Fluorescence intensity was recorded during 7 more cycles and 100 μM menthol was added. Fluorescence intensity was recorded during 10 more cycles.\nData analysis: The Z-factor was calculated in each assay using the following equation: […]. In all the experiments, the Z-factor was ≥0.5. The effect of the compounds against TRPM8 activity was determined by normalizing their effect on the maximum fluorescence observed after application of 100 μM menthol. Decrease in menthol signal was expressed as percentage of inhibition (%). All data are expressed as the mean ± standard deviation (SD). Data are expressed as the concentration exerting a half-maximal inhibition of agonist-induced [Ca^2+]i elevation (IC50), which was calculated again using GraphPad Prism® software. All determinations were performed in triplicate (n = 3) in 3 independent experiments (N = 3)."}, "rTRPM8 [2]": {"target": "T1, rTRPM8", "test": "Whole-cell patch-clamp, HEK293-rTRPM8 cells", "type": "cell-based", "settings": "HEK293-rTRPM8, 100 μM menthol, holding voltage −60 mV", "procedure": "To confirm the antagonistic activity, electrophysiology (patch-clamp) studies were performed on HEK293 cells expressing the rTRPM8 channel. […] Then, using a holding voltage of −60 mV, different concentrations of RGM8-51 were used to establish the concentration/response curve for rTRPM8 current blockade.\nWhole-cell patch-clamp recordings from HEK293-rTRPM8 cells were carried out 2 days after seeding on 12 mm Ø glass coverslips treated with poly-L-lysine solution (Sigma Aldrich, Spain); the intracellular pipette solution contained (in mM) 150 NaCl, 5 EGTA, 3 MgCl2 and 10 HEPES, adjusted to pH 7.2 with NaOH, and the extracellular solution contained (in mM) 150 NaCl, 6 CsCl, 1.5 CaCl2, 1 MgCl2, 10 D-glucose and 10 HEPES, adjusted to pH 7.4 with NaOH. The TRPM8 activity was measured by the application of two pulses of 100 μM menthol in a time interval of 2 min and a 30 s perfusion of the different compound concentrations before the second menthol pulse.\nData were sampled at 10 kHz (EPC10 amplifier with PatchMaster 2.53 software, HEKA Electronics, Lambrecht, Germany) and low-pass filtered at 3 kHz for analysis (PatchMaster 2.53 and GraphPad Prism 6.0, Graphpad Software, San Diego, CA, USA). The series resistance was <10 MΩ and to minimize voltage errors was compensated by 60–80%. […] Cell capacitance was measured and used to estimate the current density (J, pA/pF).\nData analysis: For the whole-cell patch-clamp experiments, results are expressed as the percentage of remaining activation of the TRPM8 channel. This is calculated by normalizing the ratio (p2/p1) of testing conditions to the ratio (p2/p1) of the control condition. […] All data are expressed as the mean ± standard error of the mean (SEM) (n = 5–8). In the current-clamp experiments, the change in membrane potential is expressed as the difference between the resting membrane potential and the membrane potential after the addition of a stimuli. Data were analyzed as previously described (GraphPad 6.0, one-way ANOVA followed by Bonferroni multiple comparisons test, and ROUT method, Q = 10%)."}, "[3]": {"test_system": "OXA-induced cold hypersensitivity in male mice", "design": "method as in PMID 32843690", "settings": "ref [31]; cited from earlier work"}, "rTRPM8 [4]": {"target": "T1, rTRPM8", "design": "method as in PMID 32843690", "settings": "reference antagonist value; ref [31]; read-out: rTRPM8 IC50, Ca2+ microfluorography; cited from earlier work"}, "CACO-2 cell monolayers": {"test_system": "CACO-2 cell monolayers", "test": "Caco-2 permeability", "type": "in vitro ADME", "settings": "CACO-2 cell monolayer", "procedure": "These studies were subcontracted to Eurofins-CEREP or Eurofins-PANLABS. Briefly, agonists and antagonist assays were performed in cell cultures overexpressing the corresponding channel (CHO: TRPV1 and TRPA1; HEK293: TRPV3 and ASIC3). In vitro pharmacology, cellular channel functional assays: the compound was prepared in assay buffer to the final concentration, 10 μM. The compound wells, reference agonist and background vehicle controls were prepared in DMSO at 0.3%. The reference agonist for each Ion Channel assayed was prepared in a similar manner to serve as the assay control. The reference agonist for each Ion Channel was included at Emax (the concentration where the reference agonist elicited a maximal response). The agonist assay was conducted on fluorimeter instruments where the test compound, vehicle controls, and reference agonist were added to the assay plate after a fluorescence baseline was established. The agonist assay was used to assess each compound’s ability to activate each Ion Channel assayed. For the antagonist assay, the compound was pre-incubated for five minutes at room temperature, and then challenged with the EC80 concentration of the reference agonist after establishment of a fluorescence baseline. Vehicle controls and EC80 concentration of reference agonist were added to appropriate wells. The antagonist assay was used to assess each compound’s ability to inhibit activation by the corresponding Ion Channel agonist. ASIC3 ionflux antagonist assay: all recordings were obtained from a holding potential of -60 mV. The compound addition sequence was as follows: one addition of pH5.5 buffer was added to establish the baseline response, the test concentration of compound was applied for 30 s, followed by the addition of pH5.5 of compound for 2 s. Binding assays were performed in CHO cell cultures overexpressing human CGRPR, CB2 and M2 receptors. RGM8-51 (10 μM) was tested, and reference compounds used as control agonists and antagonists are detailed in Table 2, footnote. Binding assay results are expressed as a percent of control specific binding. […] Aqueous solubility (μM) was determined by comparing the peak area of the principal peak in a calibration standard (200 μM) containing organic solvent (methanol/water, 60/40, v/v) with the peak area of the corresponding peak in a buffer sample. Partition coefficient: the total amount of compound was determined as the peak area of the principal peak in a calibration standard (100 μM) containing organic solvent (methanol/water, 60/40, v/v). The amount of compound in buffer was determined as the combined, volume-corrected, and weighted areas of the corresponding peaks in the aqueous phases of three organic-aqueous samples of different composition. An automated weighting system was used to ensure the preferred use of raw data from those samples with well quantifiable peak signals. The amount of compound in organic phase was calculated by subtraction. Subsequently, Log D was calculated as the Log10 of the amount of compound in the organic phase divided by the amount of compound in the aqueous phase. […] Permeability was measured in CACO-2 monolayers. Percentage of compounds in the receptors wells was measured using HPLC. […] In vitro metabolism was measured in human liver microsomes. […] The apparent intrinsic clearance (CLint, in μL/min/mg) was calculated from the half-life time."}, "serum proteins": {"test_system": "serum proteins", "test": "Protein binding", "type": "in vitro ADME, human"}}, "note": "Read-outs that look alike come from different tables or passages of the source.", "data": [{"smiles": "C[C@@H]1C(=O)N(C[C@H](Cc2ccccc2)NC(=O)OCc2ccccc2)[C@]1(Cc1ccccc1)C(=O)OCc1ccccc1", "note": "[Compound 2, reference compound]", "values": [{"measurement": "IC50", "setting": "rTRPM8 [1]", "result": "3.1 ± 1.1", "unit": "µM"}, {"measurement": "IC50", "setting": "rTRPM8 [2]", "result": "900 ± 1000", "unit": "nM"}, {"measurement": "relief of oxaliplatin-induced cold hypersensitivity", "setting": "[3]", "result": "significant activity"}]}, {"smiles": "Cc1cccc(COc2ccccc2C(=O)N(CCCN)Cc2cccs2)c1", "note": "[AMTB]", "values": [{"measurement": "IC50", "setting": "rTRPM8 [4]", "result": "7.3 ± 1.5", "unit": "µM"}]}, {"smiles": "CC(C)NCC(O)COc1cccc2ccccc12", "note": "(stereo not shown) [Propanolol, reference compound]", "values": [{"measurement": "Permeability B-A (%)", "setting": "CACO-2 cell monolayers", "result": 74, "unit": "%"}, {"measurement": "Permeability A-B (%)", "setting": "CACO-2 cell monolayers; percentage of compound in the acceptor cell", "result": 70, "unit": "%"}]}, {"smiles": "CC(=O)CC(c1ccccc1)c1c(O)c2ccccc2oc1=O", "note": "(stereo not shown) [Warfarin, reference compound]", "values": [{"measurement": "Binding to proteins (%)", "setting": "serum proteins", "result": 99, "unit": "%"}]}]}
